# Tests used:
# [1] = target: T1, EHMT1 (Homo sapiens, UniProt Q9H9B1); assay: EHMT1 PEP (EHMT1 peptide enzyme assay); type: biochemical; conditions: peptide substrate enzyme assay
# T1 sequence (Q9H9B1 1-1298): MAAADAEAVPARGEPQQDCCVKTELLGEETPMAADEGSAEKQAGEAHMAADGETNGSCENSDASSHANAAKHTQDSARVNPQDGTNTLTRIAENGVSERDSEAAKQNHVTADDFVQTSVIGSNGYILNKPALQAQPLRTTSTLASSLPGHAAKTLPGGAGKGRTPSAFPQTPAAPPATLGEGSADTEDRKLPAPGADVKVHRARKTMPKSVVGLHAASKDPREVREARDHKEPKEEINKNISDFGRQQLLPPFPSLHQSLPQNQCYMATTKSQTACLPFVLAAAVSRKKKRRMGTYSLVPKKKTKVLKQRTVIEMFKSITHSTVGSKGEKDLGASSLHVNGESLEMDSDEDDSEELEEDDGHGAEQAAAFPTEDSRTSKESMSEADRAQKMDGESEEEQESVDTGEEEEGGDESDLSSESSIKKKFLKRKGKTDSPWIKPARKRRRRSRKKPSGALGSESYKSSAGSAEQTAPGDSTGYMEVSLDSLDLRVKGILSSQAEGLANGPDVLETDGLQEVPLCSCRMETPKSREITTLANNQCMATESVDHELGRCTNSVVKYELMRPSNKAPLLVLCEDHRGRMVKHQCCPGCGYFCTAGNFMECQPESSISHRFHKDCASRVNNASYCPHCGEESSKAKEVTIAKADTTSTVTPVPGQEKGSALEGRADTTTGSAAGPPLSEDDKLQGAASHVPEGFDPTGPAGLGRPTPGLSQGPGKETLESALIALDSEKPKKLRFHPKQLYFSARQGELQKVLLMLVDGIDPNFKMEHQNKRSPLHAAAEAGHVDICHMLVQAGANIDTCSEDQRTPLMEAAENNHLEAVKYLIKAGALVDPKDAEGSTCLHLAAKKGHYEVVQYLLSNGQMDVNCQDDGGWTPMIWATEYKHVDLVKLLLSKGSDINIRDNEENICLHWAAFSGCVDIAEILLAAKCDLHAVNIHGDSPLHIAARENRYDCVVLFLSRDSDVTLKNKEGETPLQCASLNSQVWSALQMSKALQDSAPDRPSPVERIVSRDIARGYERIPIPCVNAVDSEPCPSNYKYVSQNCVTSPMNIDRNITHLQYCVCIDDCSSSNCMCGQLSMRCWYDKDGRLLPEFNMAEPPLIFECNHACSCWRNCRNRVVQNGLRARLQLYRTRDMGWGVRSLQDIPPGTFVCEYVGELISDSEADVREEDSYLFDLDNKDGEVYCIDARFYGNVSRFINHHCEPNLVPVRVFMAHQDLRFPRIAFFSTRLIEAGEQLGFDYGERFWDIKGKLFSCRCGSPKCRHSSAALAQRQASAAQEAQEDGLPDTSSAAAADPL
# [2] = target: T2, recombinant purified human EHMT2 913-1193 (Homo sapiens, UniProt Q96KQ7); assay: EHMT2 enzyme assay on histone peptide substrate (3H-SAM Flashplate); type: biochemical; conditions: read-out: EHMT2 PEP (IC50 μM)
# T2 construct: Recombinant purified human EHMT2 913-1193 (55 μM) synthesized by Viva was used for all experiments; purchased Viva
# T2 sequence (Q96KQ7 913-1193): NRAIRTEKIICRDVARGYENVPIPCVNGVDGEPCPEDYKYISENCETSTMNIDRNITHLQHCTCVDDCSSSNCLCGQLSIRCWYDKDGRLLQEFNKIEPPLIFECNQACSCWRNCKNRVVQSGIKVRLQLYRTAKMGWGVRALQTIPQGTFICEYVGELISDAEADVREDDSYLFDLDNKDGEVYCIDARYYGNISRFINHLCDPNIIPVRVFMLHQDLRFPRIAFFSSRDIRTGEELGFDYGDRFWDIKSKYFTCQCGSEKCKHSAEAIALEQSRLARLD
# Protocol: Recombinant purified human EHMT2 913-1193 (55 μM) synthesized by Viva was used for all experiments. Biotinylated histone peptides were synthesized by Biopeptide and HPLC-purified to >95% purity. Streptavidin Flashplates and seals were purchased from PerkinElmer and 384 Well V-bottom Polypropylene Plates were from Greiner. ^3H-labeled S-adenosylmethionine (3H-SAM) was obtained from American Radiolabeled Chemicals with a specific activity of 80 Ci/mmol. Unlabeled SAM and S-adenosylhomocysteine (SAH) were obtained from American Radiolabeled Chemicals and Sigma-Aldrich respectively. Flashplates were washed in a Biotek ELx-405 with 0.1% Tween. 384-well Flashplates and 96-well filter binding plates were read on a TopCount microplate reader (PerkinElmer). Compound serial dilutions were performed on a Freedom EVO (Tecan) and spotted into assay plates using a Thermo Scientific Matrix PlateMate (Thermo Scientific). Reagent cocktails were added by Multidrop Combi (Thermo Scientific).
# General Procedure for EHMT2 Enzyme Assay on Histone Peptide Substrate.
# 10-point curves of test compounds were made on a Freedom EVO (Tecan) using serial 3-fold dilutions in DMSO, beginning at 2.5 mM (final top concentration of compound was 50 μM and the DMSO was 2%). A 1 μL aliquot of the inhibitor dilution series was spotted in a polypropylene 384-well V-bottom plate (Greiner) using a Thermo Scientific Matrix PlateMate (Thermo Scientific). The 100% inhibition control consisted of 1 mM final concentration of the product inhibitor S-adenosylhomocysteine (SAH, Sigma-Aldrich). Compounds were incubated for 30 minutes with 40 μL per well of 0.031 nM EHMT2 (recombinant purified human EHMT2 913-1193, Viva) in 1× assay buffer (20 mM Bicine [pH 7.5], 0.002% Tween 20, 0.005% Bovine Skin Gelatin and 1 mM TCEP). 10 μL per well of substrate mix comprising assay buffer, ^3H-SAM (3H-labeled S-adenosylmethionine, American Radiolabeled Chemicals, specific activity of 80 Ci/mmol), unlabeled SAM (American Radiolabeled Chemicals), and peptide representing histone H3 residues 1-15 containing C-terminal biotin (appended to a C-terminal amide-capped lysine, synthesized by Biopeptide and HPLC-purified to greater than 95% purity) were added to initiate the reaction (both substrates were present in the final reaction mixture at their respective Km values, an assay format referred to as “balanced conditions”). Reactions were incubated for 60 minutes at room temperature and quenched with 10 μL per well of 400 μM unlabeled SAM, then transferred to a 384-well streptavidin Flashplate (PerkinElmer) and washed in a Biotek ELx-405 well washer with 0.1% Tween after 60 minutes. 384-well Flashplates were read on a TopCount microplate reader (PerkinElmer).
# IC50 curves were generated using triplicate wells per concentration of compound. The IC50 is the concentration of compound at which measured methylation is inhibited by 50% as interpolated from the dose response curves. IC50 values were calculated using a non-linear regression (variable slope-four parameter fit model) with by the following formula
# where Top is fixed at 100% and Bottom is fixed to 0%, [I]=concentration of inhibitor, IC50=half maximal inhibitory concentration and n=Hill Slope.
IC50 [1] [µM],IC50 [2] [µM],Compound
0.1 to 1,,CNc1cc(C)nc(Nc2ccc(Cl)c(C(=O)Nc3ncco3)c2)n1 [Compound 249]
,1 to 10,CNc1cc(C)nc(Nc2ccc(C)c(C(=O)Nc3cc(C#N)ccn3)c2)n1 [Compound 303]
< 0.1,< 0.1,CNCc1cnn(-c2cc(Nc3nc(C)cc(NC)n3)ccc2C#N)c1 [Compound 332]
< 0.1,< 0.1,CNc1cc(C)nc(Nc2ccc(OC)c(-n3cc([C@@H]4CCCN4)cn3)c2)n1 [Compound 333]
< 0.1,< 0.1,CNc1cc(C)nc(Nc2ccc(OC)c(-n3cc([C@H]4CCCN4)cn3)c2)n1 [Compound 334]
